Key:
Test in all cases: selective drug sensitivity score (sDSS, relative to normal bone marrow) (sDSS (score)); higher = more potent and effective on the cell line relative to normal bone marrow cells
Conditions in all cases: 72 h
COG-LL-317 = system: COG-LL-317
CCRF-HSB2 = system: CCRF-HSB2
TANOUE = system: TANOUE
JURKAT = system: JURKAT
COG-LL-355h = system: COG-LL-355h
LC4-1 = system: LC4-1
MOLT-16 = system: MOLT-16
SUP-B15 = system: SUP-B15
COG-LL-319h = system: COG-LL-319h
697 = system: 697
ALL-PO = system: ALL-PO
KASUMI-9 = system: KASUMI-9
P30-OHKUBO = system: P30-OHKUBO
HAL-01 = system: HAL-01
MN-60 = system: MN-60
MHH-CALL-4 = system: MHH-CALL-4
KOPN-8 = system: KOPN-8
TMD5 = system: TMD5
SEM cells = system: SEM cells
PEER = system: PEER
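Further: ALL cell lines in 384-well plates, five doses spanning 10,000-fold, each plate scaled between vehicle and 100 µmol/L benzalkonium chloride controls, sDSS an adapted area-under-curve metric.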

| SMILES | selective drug sensitivity score (COG-LL-317) | selective drug sensitivity score (CCRF-HSB2) | selective drug sensitivity score (TANOUE) | selective drug sensitivity score (JURKAT) | selective drug sensitivity score (COG-LL-355h) | selective drug sensitivity score (LC4-1) | selective drug sensitivity score (MOLT-16) | selective drug sensitivity score (SUP-B15) | selective drug sensitivity score (COG-LL-319h) | selective drug sensitivity score 697 | selective drug sensitivity score (ALL-PO) | selective drug sensitivity score (KASUMI-9) | selective drug sensitivity score (P30-OHKUBO) | selective drug sensitivity score (HAL-01) | selective drug sensitivity score (MN-60) | selective drug sensitivity score (MHH-CALL-4) | selective drug sensitivity score (KOPN-8) | selective drug sensitivity score (TMD5) | selective drug sensitivity score (SEM cells) | selective drug sensitivity score (PEER) |
| --- | --- | --- | --- | --- | --- | --- | --- | --- | --- | --- | --- | --- | --- | --- | --- | --- | --- | --- | --- | --- |
| CNC(=O)c1ccccc1Sc1ccc2c(/C=C/c3ccccn3)n[nH]c2c1 [Axitinib] (top concentration 10000 nM) | 8.26 | 11 | -2.94 | 5.06 | -0.74 | 11.8 | 13.1 | 16.4 | 7.96 | 14.7 | 9.16 | 8.36 | 12.2 | -0.94 | -2.94 | -2.44 | 6.06 | 6.76 | 13.1 | 17.3 |
| Cc1c(N)nc([C@H](CC(N)=O)NC[C@H](N)C(N)=O)nc1C(=O)N[C@H](C(=O)N[C@H](C)[C@@H](O)[C@H](C)C(=O)N[C@H](C(=O)NCCc1nc(-c2nc(C(=O)NCCC[S+](C)C)cs2)cs1)[C@@H](C)O)[C@@H](O[C@@H]1O[C@@H](CO)[C@@H](O)[C@H](O)[C@@H]1O[C@H]1O[C@H](CO)[C@@H](O)[C@H](OC(N)=O)[C@@H]1O)c1c[nH]cn1 [Bleomycin] (top concentration 10000 nM) | 5.14 | -0.06 | -1.86 | -0.96 | 4.14 | 0.54 | 4.54 | 6.44 | 7.84 | 4.74 | -1.76 | 6.24 | 4.44 | 8.44 | -1.86 | 4.54 | 7.34 | 7.34 | 11.1 | -0.66 |
| CC(C)C[C@H](NC(=O)[C@H](Cc1ccccc1)NC(=O)c1cnccn1)B(O)O [Bortezomib] (top concentration 1000 nM) | 3.02 | 5.82 | -9.68 | 1.72 | 5.92 | 3.32 | 2.02 | 8.42 | 4.02 | 2.62 | 4.82 | 3.22 | 4.72 | 4.12 | -3.38 | 3.92 | 3.42 | 2.32 | 12.9 | 2.32 |
| CCC/C=C/C=C/C(=O)O[C@H]1/C(=C/C(=O)OC)C[C@H]2C[C@H]([C@@H](C)O)OC(=O)C[C@H](O)C[C@@H]3C[C@H](OC(C)=O)C(C)(C)[C@](O)(C[C@@H]4C/C(=C/C(=O)OC)C[C@H](/C=C/C(C)(C)[C@]1(O)O2)O4)O3 [Bryostatin_1] (top concentration 100 nM) | -6.82 | 20.4 | -6.82 | -0.02 | -7.12 | 30.6 | -7.12 | 15.6 | -7.12 | 12 | -7.12 | 25.1 | 20.2 | 0.08 | -7.12 | -7.12 | 26.9 | -7.12 | -7.12 | -7.12 |
| CO[C@H]1CC[C@H](N2C(=O)CNc3ncc(-c4ccc(C(C)(C)O)nc4)nc32)CC1 [CC-223] (top concentration 10000 nM) | -0.48 | 2.62 | -3.88 | 0.02 | 1.12 | 0.42 | 4.12 | -1.38 | 5.12 | 5.02 | 0.22 | 5.12 | 3.12 | 6.32 | 1.32 | 1.52 | 8.12 | 6.12 | 0.72 | 1.02 |
| CN(C)c1cc2c(cc1Sc1nc3c(N)nccc3n1CCNCC(C)(C)C)OCO2 [CUDC-305] (top concentration 10000 nM) | 7.62 | 8.12 | -6.68 | 1.22 | 2.42 | -0.98 | 4.42 | 3.22 | -2.48 | 2.92 | 7.52 | 0.22 | 1.72 | 3.32 | 1.42 | 0.92 | 4.32 | 1.82 | 5.12 | 0.42 |
| CO[C@H]1C(=O)[C@]2(C)[C@@H](OC)C[C@H]3OC[C@@]3(OC(C)=O)[C@H]2[C@H](OC(=O)c2ccccc2)[C@]2(O)C[C@H](OC(=O)[C@H](O)[C@@H](NC(=O)OC(C)(C)C)c3ccccc3)C(C)=C1C2(C)C [Cabazitaxel] (top concentration 1000 nM) | 26.2 | 21.1 | -11.5 | 18.3 | 2.58 | 22.4 | 26.7 | 21.9 | 16.9 | 23.7 | 15.1 | 18.7 | 20.3 | 11.7 | -5.32 | 3.58 | 17.9 | 2.88 | 19.5 | 23 |
| C=CC(=O)Nc1cc2c(Nc3ccc(F)c(Cl)c3)ncnc2cc1OCCCN1CCOCC1 [Canertinib] (top concentration 10000 nM) | 2.96 | 6.36 | -7.24 | -1.14 | 5.96 | 2.76 | 1.86 | 3.16 | 3.36 | 1.66 | 2.86 | 3.76 | 2.26 | 2.76 | -4.14 | 1.66 | 4.36 | 4.96 | 2.56 | 2.26 |
| CC(C)C[C@H](NC(=O)[C@H](CCc1ccccc1)NC(=O)CN1CCOCC1)C(=O)N[C@@H](Cc1ccccc1)C(=O)N[C@@H](CC(C)C)C(=O)[C@@]1(C)CO1 [Carfilzomib] (top concentration 1000 nM) | 1.06 | 3.86 | -8.24 | -4.04 | 5.06 | 2.36 | 1.36 | 4.56 | 2.56 | 0.66 | 4.76 | 1.76 | 3.46 | -8.84 | -7.34 | 1.56 | 1.46 | 0.16 | 8.56 | 2.56 |
| O=C(c1ccc(F)c(F)c1Nc1ccc(I)cc1F)N1CC(O)([C@@H]2CCCCN2)C1 [Cobimetinib] (top concentration 1000 nM) | -3.68 | -0.28 | -3.68 | -3.68 | 5.02 | -0.68 | -3.68 | 6.62 | -1.28 | -2.58 | 0.92 | -2.38 | -3.68 | 0.32 | -3.68 | 2.62 | 2.12 | 1.32 | -2.48 | -2.78 |
| COc1c(OCCCN2CCOCC2)ccc2c1N=C(NC(=O)c1cnc(N)nc1)N1CCN=C21 [Copanlisib] (top concentration 1000 nM) | 6.08 | 1.98 | -6.52 | -3.62 | 12.2 | -4.22 | 7.68 | -2.12 | 3.18 | 3.48 | 8.28 | 5.98 | 10.1 | 12.1 | 0.48 | 9.28 | 4.98 | -5.32 | 4.18 | -5.82 |
| Cn1c(=O)n(-c2ccc(C(C)(C)C#N)cc2)c2c3cc(-c4cnc5ccccc5c4)ccc3ncc21 [Dactolisib] (top concentration 1000 nM) | 2.26 | 11.1 | -2.54 | 7.26 | 3.46 | 5.16 | 16.1 | 10.3 | -7.44 | 15.8 | 4.56 | 10.3 | 14.8 | 9.66 | 8.66 | 4.06 | 15.1 | 4.46 | 10.4 | 5.06 |
| O=C(/C=C/c1cccnc1)NCCCCC1CCN(C(=O)c2ccccc2)CC1 [Daporinad] (top concentration 1000 nM) | 17.7 | 6.76 | 7.66 | 8.76 | 11 | 14.2 | 11.2 | 19.4 | 9.76 | 16.3 | 13.8 | 16.2 | 16 | 7.26 | 6.66 | 7.66 | 19.8 | 4.46 | 17.2 | 8.76 |
| CC(=O)N(O)CCCCCNC(=O)CCC(=O)N(O)CCCCCNC(=O)CCC(=O)N(O)CCCCCN [Deferoxamine] (top concentration 10000 nM) | 18.4 | 4.86 | 3.46 | 2.26 | 1.46 | 1.76 | 6.26 | 4.76 | 7.86 | 6.26 | 2.56 | 1.16 | 0.76 | 8.46 | 5.16 | -0.84 | 10.4 | -0.24 | 2.66 | 2.16 |
| Cc1cc(Nc2cc(N3CCN(C)CC3)nc(/C=C/c3ccccc3)n2)n[nH]1 [ENMD-2076] (top concentration 10000 nM) | 5.14 | 9.74 | -9.16 | 3.64 | 4.04 | 7.64 | 7.04 | 4.74 | 5.54 | 9.54 | 10.3 | 9.24 | 8.94 | 5.54 | -1.46 | 0.34 | 8.34 | -0.26 | 15 | 7.14 |
| Cc1cnc(Nc2ccc(OCCN3CCCC3)cc2)nc1Nc1cccc(S(=O)(=O)NC(C)(C)C)c1 [Fedratinib] (top concentration 10000 nM) | -3.36 | 0.54 | -7.06 | -2.06 | 3.84 | -0.36 | -1.06 | -0.66 | 4.64 | -0.76 | 3.24 | -0.86 | -2.16 | -1.96 | -4.06 | -1.36 | -0.76 | -2.26 | 2.74 | -0.16 |
| COc1ccc(-c2nc(N3CCOCC3)c3sc(CN(C)c4ncc(C(=O)NO)cn4)cc3n2)cn1 [Fimepinostat (CUDC-907)] (top concentration 10000 nM) | 7.58 | 1.68 | -14.8 | 0.98 | 7.28 | 8.68 | 8.68 | 10.7 | -3.82 | 9.88 | 6.48 | 10.7 | 8.68 | 0.98 | -1.22 | 9.68 | 10.9 | 5.18 | 8.68 | 1.98 |

Reference: the supplement of paper PMC8967900
